Reference: patent US20210038589A1, “USES, COMPOSITIONS AND METHODS” (priority 2018, published 2021)

Test system: pyramidal cell action potentials in hippocampal area CA3
Experiment: Concomitant LFP and single unit recordings: AP firing and spike-phase coupling after Aβ
Format: cell-based, mouse
Conditions: inhibitor applied after the application of Aβ
Protocol: Having studied the synaptic effects of two T-type Ca^2+ channel inhibitors, we then proceeded to examine their ability to modulate the synchronization of hippocampal neuronal activity. We performed concomitant recordings of field potentials and single unit recordings to analyze the synchronization of action potentials with the phase of the gamma oscillations (27). […] To determine the spike phase of PC during a gamma oscillation, spike-phase coupling was calculated. […] This is observed as a slight shift to the right in the AP-phase distribution (7A,D). The desynchronization of PC activity is also evidenced by the reduction of the summation vector length (Pmzd: control: 0.3764±0.048, Aβ: 0.226±0.05, n=7, p=0.0078, FIG. 7B; Penfl: control: 0.3976±0.054, Aβ: 0.2661±0.05566, n=8, p=0.0078, FIG. 7E), which is represented by the change in the length of the arrow in FIGS. 7A and D.
Patch-clamp (whole-cell) recordings were performed from visually identified CA3 PC using The SliceScope (Scientifica, UK). Action Potentials (APs) were recorded from pyramidal cells in area CA3 as single units (submerged chamber) using standard ACSF-containing patch electrodes. For EPSC recordings (Vh=−70 mV) a potassium-based intracellular solution was used (in mM): 122.5 K-gluconate, 17.5 KCl, 4 ATPNa, 0.4 GTPNa, 10 HEPES, 0.2 EGTA, 2 MgCl, set to pH 7.2-7.3 with KOH, osmolarity 270-280 mOsm. For IPSC recordings (Vh=0 mV) a cesium-based intracellular solution was used (in mM): 140 CsMeSO4, 10 HEPES, 0.2 EGTA, 4 MGCl, 2 ATPNa, 0.2 GTPNa, 5 QX-314, set to pH 7.2-7.4 with CsOH, osmolarity 270-280 mOsm.
Spike phase-coupling analysis was performed on concomitant LFP recordings and single unit recordings using MATLAB custom-written routines in order to relate the PC spiking activity to ongoing gamma oscillations (48). To do this LFP recordings were pre-processed using a band pass filter set to 20-60 Hz (highpass: RC-single pole, lowpass: RC-single pole) using Clampfit 10.7. AP were detected using an amplitude threshold and the instantaneous phase of gamma oscillation was calculated using a Hilbert transform in order to determine the phase-angle at which each action potential occurred during ongoing oscillations. Phase-angles and gamma oscillations-phases were represented in polar plots and expressed in radians with the peak of the oscillation cycle corresponding to 0π and the valley corresponding to ±π in the polar plots. In order to search for the synchronization level of AP firing, AP phase-angles frequency-distribution were normalized, a Gaussian function was fitted and the half-width at half-maximum was then calculated as a measure of the synchronization level: the more AP are fired on the same phase-angle the more synchronized the neuronal activity is. The preferred phase-angle was calculated by averaging the AP phase-angles distribution of all the experiments and is represented by an arrow in the polar-plots. To test whether neurons fired in a phase-related manner all concomitant recordings were tested for circular uniformity using Rayleigh's test. Only recording with p values below 0.05 were considered for the analysis.

SMILES | AP count (AP firing frequency) [Hz] | preferred phase angle [radians] | summation vector length
OC1(c2ccc(Cl)c(C(F)(F)F)c2)CCN(CCCC(c2ccc(F)cc2)c2ccc(F)cc2)CC1 [Penfluridol] | 1.79±0.43 | 4.09±0.2 | 0.355±0.05
O=c1[nH]c2ccccc2n1C1CCN(CCCC(c2ccc(F)cc2)c2ccc(F)cc2)CC1 [Pimozide] | 2.23±0.51 | 4.180±0.15 | 0.335±0.072
